According to the NIST ThermoML archive (doi:10.1021/acs.jced.8b01135):
Numbers after ± are expanded uncertainties.

Assay: xn = mol fraction of the nth substance listed
Settings: 102 kPa, Liquid; for speed of sound: Frequency=3 MHz, Single path-length method; for mass density: Vibrating tube method; for viscosity: Concentric cylinders viscometry

CCCCCCCCCCC1CCCCC1 [decylcyclohexane] + CCCCCCCCCCCC
Settings	mass density, 288.15 K [kg/m3]	mass density, 293.15 K [kg/m3]	mass density, 298.15 K [kg/m3]	mass density, 303.15 K [kg/m3]	speed of sound, 288.15 K [m/s]	speed of sound, 293.15 K [m/s]	speed of sound, 298.15 K [m/s]	speed of sound, 303.15 K [m/s]	viscosity, 293.15 K [mPa·s]	viscosity, 303.15 K [mPa·s]
x1 = 0.1003	760.76 ± 0.71	757.16 ± 0.71	753.56 ± 0.71	749.96 ± 0.71	1329.7 ± 0.8	1310.3 ± 0.8	1290.9 ± 0.8	1271.8 ± 0.8	1.7 ± 0.02	1.43 ± 0.02
x1 = 0.2194	770.26 ± 0.71	766.69 ± 0.71	763.13 ± 0.71	759.57 ± 0.71	1344 ± 0.8	1324.7 ± 0.8	1305.4 ± 0.8	1286.4 ± 0.8	1.98 ± 0.02	1.65 ± 0.02
x1 = 0.3002	776.43 ± 0.71	772.89 ± 0.71	769.34 ± 0.71	765.8 ± 0.71	1353.5 ± 0.8	1334.2 ± 0.8	1315 ± 0.8	1296 ± 0.8	2.19 ± 0.02	1.79 ± 0.02
x1 = 0.4004	783.8 ± 0.71	780.28 ± 0.71	776.76 ± 0.71	773.24 ± 0.71	1364.7 ± 0.9	1345.7 ± 0.9	1326.8 ± 0.9	1308.1 ± 0.9	2.48 ± 0.02	2.02 ± 0.02
x1 = 0.4999	790.8 ± 0.71	787.31 ± 0.71	783.81 ± 0.71	780.31 ± 0.71	1375.6 ± 0.9	1356.6 ± 0.9	1337.8 ± 0.9	1319.1 ± 0.9	2.82 ± 0.02	2.27 ± 0.02
x1 = 0.5993	797.51 ± 0.71	794.05 ± 0.71	790.58 ± 0.71	–	1386.2 ± 0.9	1367.1 ± 0.9	1348.6 ± 0.9	1329.7 ± 0.9	3.2 ± 0.03	2.55 ± 0.02
x1 = 0.7001	804.03 ± 0.71	800.58 ± 0.71	797.13 ± 0.71	–	1396.3 ± 0.9	1377.5 ± 0.9	1358.8 ± 0.9	1340.2 ± 0.9	3.64 ± 0.03	2.88 ± 0.03
x1 = 0.8005	810.28 ± 0.71	806.85 ± 0.71	803.42 ± 0.71	–	1406.3 ± 0.9	1387.5 ± 0.9	1368.8 ± 0.9	1350.4 ± 0.9	4.13 ± 0.03	3.23 ± 0.03
x1 = 0.8991	816.18 ± 0.71	812.78 ± 0.71	809.36 ± 0.71	–	1415.8 ± 0.9	1397.1 ± 0.9	1378.5 ± 0.9	1360.1 ± 0.9	4.68 ± 0.05	3.63 ± 0.03
x1 = 1	821.93 ± 0.71	818.54 ± 0.71	815.16 ± 0.71	–	1425.2 ± 0.9	1406.4 ± 0.9	1387.7 ± 0.9	1369.1 ± 0.9	5.34 ± 0.03	4.09 ± 0.03
